Reference: patent US8309766B2 (Obschestvo S. Organichennoi Otvetstvennostiyu …, priority 2005, dated 2012)
Where two headings read alike, the source gives them in different places.

Assays:
"hot plate" test in mice = assay: Analgetic activity on the model "hot plate"; type: in vivo, white mongrel mice; conditions: for response vs control in vivo at 10 mg/kg / change in vivo at 10 mg/kg / change in vivo at 200 mg/kg / response vs control in vivo at 200 mg/kg: Mus musculus; for response vs control in vivo at 10 mg/kg: percent of background; for response vs control in vivo at 10 mg/kg / response vs control in vivo at 200 mg/kg: read-out: Latent time of NT (%); for change in vivo at 10 mg/kg / change in vivo at 200 mg/kg: read-out: Analgesia (%)
Procedure: The tests were conducted on males of white mongrel mice weighing 22-24 grams. The animals were individually placed on a hot plate (manufactured by the firm “Ugo Basile”), a temperature of which remained constant and was equal to 55° C. The following first manifestations of pain reaction were recorded: licking paws, jumping up prior to administration of a substance (background parameters) and 0.5, 1, 2, 3 and 4 hours post administration of a substance. Substances were administered […] (using a probe). A weighed amount of a substance was thoroughly mixed in 0.1 ml Tween 80 until a solution was obtained, then normal saline was added up to a volume of 0.5 ml. Average latent time of nociception threshold (NT) was calculated in every group. The results obtained were expressed in percent of the background values. Analgetic effect (in %) was calculated according to the formula: A−100%=X, wherein A is a background parameter; X is analgetic effect (in %)
A is (time 0.5 to 4 hours post administration×100%): background time
As reference drugs, Analgin (150 mg/kg), Paracetamol (200 mg/kg), Ketorol (10 mg/kg), were used.

[1] = system: "acetic contortions" in mice; assay: Analgetic activity on the model "acetic contortions"; type: in vivo, white mongrel mice
Procedure: The tests were conducted on males of white mongrel mice weighing 22-24 grams. The specific pain response (“contortions”) were elicited by intraperitoneal administration to mice of 0.75% acetic acid solution. The following signs were taken into consideration: the number of seizure contractions of abdominal muscles accompanied by stretching the hind limbs and sagging the back. Analgetic effect was assessed by decrease in the number of contortions in animals in percent to the control for 15 minutes post administration of acetic acid. The technique of the tests is disclosed in Koster R., Anderson M., de Beer B.//Fed. Proc. 1959. V. 18. P. 412. Compounds under testing were administered intraperitoneally (using a probe) at a dose 10 μg/kg 60 minutes prior to injection of the acid. Diclofenac (10 mg/kg) was used as a reference drug. Analgetic effect was calculated according to the formula: […]
wherein Ck is the number of contortions in the control group,
Co is the number of contortions in the test group.

[2] = 10 mg/kg, 30 minutes post administration
[3] = 10 mg/kg, 60 minutes post administration
[4] = 10 mg/kg, 120 minutes post administration
[5] = Mus musculus, ip, 0.25 h, dose 10 mg/kg (table title), read-out: Analgetic effect (%)
[6] = Mus musculus, ip, 0.25 h, dose 10 mg/kg (table title), read-out: C, % to the control
[7] = dose 10 mg/kg (table title), 60 minutes prior to acetic acid
[8] = 0.5 h, Paracetamol 200 mg/kg, 30 minutes
[9] = 1 h, Paracetamol 200 mg/kg, 60 minutes
[10] = 2 h, Paracetamol 200 mg/kg, 120 minutes

Structure (SMILES)	latent time of nociception threshold, M ± m ("hot plate" test in mice; [2]) [s]	latent time of nociception threshold, M ± m ("hot plate" test in mice; [3]) [s]	latent time of nociception threshold, M ± m ("hot plate" test in mice; [4]) [s]	response vs control in vivo at 10 mg/kg ("hot plate" test in mice; 0.5 h, 10 mg/kg, 30 minutes) [%]	change in vivo at 10 mg/kg ("hot plate" test in mice; 0.5 h, 10 mg/kg, 30 minutes) [%]	response vs control in vivo at 10 mg/kg ("hot plate" test in mice; 1 h, 10 mg/kg, 60 minutes) [%]	change in vivo at 10 mg/kg ("hot plate" test in mice; 1 h, 10 mg/kg, 60 minutes) [%]	response vs control in vivo at 10 mg/kg ("hot plate" test in mice; 2 h, 10 mg/kg, 120 minutes) [%]	change in vivo at 10 mg/kg ("hot plate" test in mice; 2 h, 10 mg/kg, 120 minutes) [%]	inhibition in vivo at 10 mg/kg [1, 5] [%]	response vs control in vivo at 10 mg/kg [1, 6] [%]	C ± m (the number of contortions for 15 minutes) [1, 7]	also measured
O=C(Cc1ccc(O)cc1)NC(Cc1ccc(O)cc1)C(=O)O (stereo not shown) [Compound II, p-hydroxyphenylacetyltyrosine]	6.0 ± 0.6	6.1 ± 0.8	7.3 ± 0.6	176	76.5	179	79.4	215	115	24.8	75.2	24.2 ± 1.9	
O=C(Cc1ccc(O)cc1)NC(Cc1ccccc1)C(=O)O (stereo not shown) [Compound III, p-hydroxyphenylacetylphenylalanine]	6.7 ± 0.9	5.9 ± 0.8	7.0 ± 0.6	181	81	160	59.5	189	89.2	39.9	60.2	19.4 ± 3.3	
COC(=O)C(Cc1ccc(O)cc1)NC(=O)Cc1ccc(O)cc1 (stereo not shown) [Compound IV, p-hydroxyphenylacetyltyrosine methyl ester]	5.24 ± 0.88	5.54 ± 0.32	5.93 ± 0.59	104	4.2	110	10.1	118	17.9	22.1	77.9	20.8 ± 1.9	
COC(=O)C(Cc1ccccc1)NC(=O)Cc1ccc(O)cc1 (stereo not shown) [Compound V, p-hydroxyphenylacetylphenylalanine methyl ester]	4.85 ± 0.39	5.9 ± 0.81	6.58 ± 0.72	130	29.7	158	57.8	176	75.9	39.3	60.7	16.2 ± 2.6	
O=C(Cc1ccccc1)NCCc1ccc(O)cc1 [Compound VI, phenylacetyltyramine]	7.8 ± 0.8	8.3 ± 1.0	6.8 ± 0.5	132	32.2	141	40.7	115	15.3	25.5	74.5	21.1 ± 1.8	
O=C(Cc1ccc(O)cc1)NCCc1ccc(O)cc1 [Compound VII, p-hydroxyphenylacetyltyramine]		6.9 ± 0.72	8.2 ± 0.94			134	34.5	159	58.9				
O=C(CCc1ccccc1)NCCc1ccccc1 [Compound XI, 3-phenylpropionylphenylethylamine]	5.35 ± 0.98	6.49 ± 1.1		143	43.4	174	74			38.2	61.8	21.2 ± 2.5	latent time of nociception threshold, M ± m ("hot plate" test in mice; 10 mg/kg, 180 minutes post administration): 6.27 ± 0.33 s; latent time of nociception threshold, M ± m ("hot plate" test in mice; 10 mg/kg, 240 minutes post administration): 4.07 ± 0.26 s; response vs control in vivo at 10 mg/kg ("hot plate" test in mice; 3 h, 10 mg/kg, 180 minutes): 141%; change in vivo at 10 mg/kg ("hot plate" test in mice; 3 h, 10 mg/kg, 180 minutes): 41.3%; response vs control in vivo at 10 mg/kg ("hot plate" test in mice; 4 h, 10 mg/kg, 240 minutes): 136%; change in vivo at 10 mg/kg ("hot plate" test in mice; 4 h, 10 mg/kg, 240 minutes): 35.9%
COC(=O)[C@H](Cc1ccccc1)NC(=O)CCc1ccc(O)cc1 [Compound XIII, 3-(p-hydroxyphenyl)-propionylphenylalanine methyl ester]	5.9 ± 0.3	6.7 ± 0.7	6.8 ± 0.3	107	7.3	122	21.8	124	23.6	48.4	51.6	14.6 ± 1.8	
CC(=O)N[C@@H](Cc1ccc(O)cc1)C(=O)NCCc1ccc(O)cc1 [Compound XXIX, acetyltyrosyltyramine]	6.3 ± 1.2	7.2 ± 0.8	8.0 ± 1.0	197	197	225	125	250	150	42.9	57.1	15.7 ± 1.9	
O=C(O)Cc1ccccc1Nc1c(Cl)cccc1Cl [Diclofenac, reference compound]													C ± m (the number of contortions for 15 minutes) ([1]; Diclofenac 10 μg/kg [sic]): 12.9 ± 2.13
CC(=O)Nc1ccc(O)cc1 [Paracetamol, reference compound]													change in vivo at 200 mg/kg ("hot plate" test in mice; [8]): 139%; response vs control in vivo at 200 mg/kg ("hot plate" test in mice; [8]): 239%; change in vivo at 200 mg/kg ("hot plate" test in mice; [9]): 58%; response vs control in vivo at 200 mg/kg ("hot plate" test in mice; [9]): 158%; change in vivo at 200 mg/kg ("hot plate" test in mice; [10]): 92%; response vs control in vivo at 200 mg/kg ("hot plate" test in mice; [10]): 192%; latent time of nociception threshold, M ± m ("hot plate" test in mice; Paracetamol 200 mg/kg, 30 minutes): 9.44 ± 1.3 s; latent time of nociception threshold, M ± m ("hot plate" test in mice; Paracetamol 200 mg/kg, 60 minutes): 6.24 ± 0.82 s; latent time of nociception threshold, M ± m ("hot plate" test in mice; Paracetamol 200 mg/kg, 120 minutes): 7.6 ± 1.15 s
O=C(O)Cc1ccccc1Nc1c(Cl)cccc1Cl [Voltaren, reference compound]													inhibition in vivo at 0.008 mg/kg ([1]; Mus musculus, ip, 0.25 h, Voltaren 8 μg/kg, read-out: Analgetic effect (%)): 44.5%; response vs control in vivo at 0.008 mg/kg ([1]; Mus musculus, ip, 0.25 h, Voltaren 8 μg/kg, read-out: C, % to the control): 55.5%; C ± m (the number of contortions for 15 minutes) ([1]; Voltaren 8 μg/kg): 15.8 ± 2.6
